Consider two compounds from patent US5536850A, “Substance DC114-A1” (Kyowa Hakko Kogyo Co., Ltd., priority 1993, dated 1996).

pIC50: −log10 of the molar value. Converted amounts (≈) assume the structure as drawn. Like-named read-outs stand apart in the source and are kept apart here. A value given as a limit tells only on which side of the number the result lay.

One series is described as follows: Solubility. The class given is physicochemical.
Series [1] concerns Proteus vulgaris ATCC 6897. Briefly: Antibacterial activity, MIC by agar dilution method. The class given is cell-based. The method, then: (§1) The antibacterial activity was determined by the agar dilution method using a medium (pH 7) which comprises 3 g/l Bacto-tryptone (produced by Difco Laboratories), 3 g/l meat extract, 1 g/l yeast extract, 1 g/l glucose and 16 g/l agar.
The subject of series [2] is Enterococcus faecium ATCC 10541. The series is described as above. The class given is cell-based. Here is the method: as §1
Series [3] deals with Staphylococcus aureus ATCC 6538P. Described as above. The class given is cell-based. The conditions noted are these: ATCC6538P, pH 7. Here is the method: as §1
Series [4] has as its system Salmonella typhi ATCC 9992. Described as above. The class given is cell-based. The conditions noted are these: Salmonella enterica, pH 7. Here is the method:
as §1

The test system of series [5] is Pseudomonas aeruginosa Bin H No. 1. The series is described as above. The class given is cell-based. The settings on record: pH 7. Here is the method: as §1
The subject of series [6] is Shigella sonnei ATCC 9290. The description is as above. The settings on record: ATCC9290, pH 7. The class given is cell-based. Here is the method:
as §1

Series [7] deals with Candida albicans ATCC 10231. Described as above. The class given is cell-based. Here is the method:
as §1

Series [8] has as its system Klebsiella pneumoniae ATCC 10031. The series is described as above. The class given is cell-based. Here is the method:
as §1

Series [9] concerns Bacillus subtilis No. 10707. The series is described as above. The class given is cell-based. The method, then:
as §1

Another series relates to Escherichia coli ATCC 26. Described as above. The conditions noted are these: ATCC26, pH 7. The class given is cell-based. Here is the method: as §1
The test system of a further series is HeLaS3 cells. Briefly: Growth inhibition against HeLaS3 cells. The class given is cell-based. The conditions noted are these: Homo sapiens, HeLa S3, 1 h. Here is the method:
HeLaS3 cells (ATCC HTB22) were suspended in a medium comprising 10% fetal calf serum, 2 mM glutamine and MEM medium (produced by Nissui Pharmaceutical Co., Ltd.) (hereinafter referred to as medium A) to a concentration of 3×10^4 cells/ml. The cell suspension was put into wells of a 96-well microtiter plate in an amount of 0.1 ml per well. The cells in the plate were cultured at 37° C. for 20 hours in a CO2 -incubator. Subsequently, the test compound appropriately diluted with medium A was added to the wells in an amount of 0.1 ml/well. The cells were further cultured at 37° C. for one hour in the CO2 -incubator, and then the culture supernatant was removed. To the residue was added a medium comprising medium A and 0.02% Neutral Red in an amount of 0.1 ml per well, followed by culturing at 37° C. for one hour in the CO2 -incubator, whereby the cells were stained. After removal of the culture supernatant, the residue was washed once with physiological saline. The pigment was extracted with 0.001 N hydrochloric acid/30% ethanol, and the absorbance at 550 nm was measured by using a microplate reader. The concentration of the test compound at which the growth of the cells is inhibited by 50% (IC50) was calculated by comparing the absorbance of untreated cells with those of the cells treated with the test compound at known concentrations.

With `Cc1cc2c(O)c3c(cc2c2oc(C4(C)OC4C4CO4)cc(=O)c12)C(=O)C1OC1(C1CC(=O)C(O)C(C)O1)C3=O` (centres unmarked) [DC114-A1], the Solubility entry is given as “Soluble” in the series “Solubility” (acetone); “sparingly soluble” in the series “Solubility” (chloroform); “Soluble” in “Solubility” (dimethylsulfoxide (DMSO)); “sparingly soluble” in “Solubility” (ethyl acetate); “Soluble” in “Solubility” (methanol); “sparingly soluble” in the series “Solubility” (n-hexane). Besides, in the series “Solubility” (water), the Solubility result is given as “sparingly soluble”. The MIC in [1] (Proteus vulgaris, ATCC6897, pH 7) was found to be 2.6 µg/mL (≈ 4.74 µM); in [2] (Enterococcus faecium, ATCC10541, pH 7), 0.16 µg/mL (≈ 0.292 µM); in series [3] (Staphylococcus aureus) it was 0.04 µg/mL (≈ 0.0729 µM); in series [4], 5.21 µg/mL (≈ 9.5 µM); in series [5] (Pseudomonas aeruginosa), 5.21 µg/mL (≈ 9.5 µM); in series [6] it was 5.21 µg/mL (≈ 9.5 µM). For the same compound, the minimum inhibitory concentration (MIC) worked out at 5.21 µg/mL (≈ 9.5 µM) in [7] (Candida albicans, ATCC10231, pH 7); 5.21 µg/mL (≈ 9.5 µM) in series [8] (Klebsiella pneumoniae, ATCC10031, pH 7); 0.33 µg/mL (≈ 0.602 µM) in series [9] (Bacillus subtilis, NO.10707, pH 7); 5.21 µg/mL (≈ 9.5 µM) with Escherichia coli ATCC 26. In the series on HeLaS3 cells, this compound had a pIC50 of 7.92.
As to `Cc1cc2c(O)c3c(cc2c2oc(C4(C)OC4C4CO4)cc(=O)c12)C(=O)C1OC1(C1CC(=O)C(O)C(C)O1)C3O` (centres unmarked) [DC114-C, reference compound], the MIC in [1] (ATCC6897, Proteus vulgaris ATCC 6897, agar dilution, pH 7, read-out: MIC) came to 5.21 µg/mL (≈ 9.46 µM); in [2] (ATCC10541, Enterococcus faecium ATCC 10541, agar dilution, pH 7, read-out: MIC), 0.16 µg/mL (≈ 0.291 µM); in [3] (Staphylococcus aureus ATCC 6538P, agar dilution, read-out: MIC), 0.16 µg/mL (≈ 0.291 µM); in [4], 20.8 µg/mL (≈ 37.8 µM); in series [5] (Pseudomonas aeruginosa Bin H No. 1, agar dilution, read-out: MIC) it was 41.7 µg/mL (≈ 75.7 µM); in [6] it was 20.8 µg/mL (≈ 37.8 µM). For the same compound, the MIC in [7] (ATCC10231, Candida albicans ATCC 10231, agar dilution, pH 7, read-out: MIC) was above 83.3 µg/mL; in series [8] (ATCC10031, Klebsiella pneumoniae ATCC 10031, agar dilution, pH 7, read-out: MIC), 5.21 µg/mL (≈ 9.46 µM); in [9] (Bacillus subtilis No. 10707, agar dilution, pH 7, read-out: MIC), 0.33 µg/mL (≈ 0.599 µM); in the series on Escherichia coli ATCC 26, 20.8 µg/mL (≈ 37.8 µM). Further, the pIC50 with HeLaS3 cells (HeLaS3 cells, one hour with compound, 37° C., Neutral Red, absorbance at 550 nm, read-out: IC50) was 7.68.
